From a melting point compilation (Tetko et al.; mined from patent text by program, amines drawn as free bases though some values may be those of a salt) come the findings set out here.

What is called melting point is the temperature of the solid-liquid transition.

With `Cc1ccc(C(=O)NCc2ccccc2)cc1-c1nc(NCCCN(C)C)nc2c1CNC(=O)N2c1c(F)cccc1F`, the melting point is 141 to 144 °C.
In the case of `Cc1cc(O)nc2[nH]nc(C)c12`, the melting point was 233 to 235 °C.
With `O=C(O)C1Cc2c([nH]c3ccccc23)CN1C(=S)SC1CCCCC1` (stereo not given) the figure was 150 to 151 °C; with `O=C(NCc1ccccc1)c1cc2c(-c3ccccc3)n[nH]c2s1`, 98 to 101 °C; with `Cc1ccc2c(c1)C(=O)c1ccc(C(N)=O)cc1S2(=O)=O`, 305 °C.
